{"source": "paper PMC9942557", "about": "“Bolaamphiphile Analogues of 12-bis-THA Cl2 Are Potent Antimicrobial Therapeutics with Distinct Mechanisms of Action against Bacterial, Mycobacterial, and Fungal Pathogens” (mSphere, 2022)", "key": {"[1]": {"system": "Acinetobacter baumannii AYE", "test": "Broth microdilution MIC", "type": "cell-based", "settings": "Acinetobacter baumannii AYE"}, "[2]": {"system": "Escherichia coli NCTC 12923", "test": "Broth microdilution MIC", "type": "cell-based"}, "P. aeruginosa RP73": {"system": "P. aeruginosa RP73", "test": "Checkerboard synergy assay", "type": "cell-based, Pseudomonas aeruginosa"}, "A. baumannii ATCC 17978": {"system": "A. baumannii ATCC 17978", "test": "G. mellonella burn wound infection model", "type": "in vivo, Galleria mellonella", "settings": "alone; for larvae rescued: 96 h", "excerpt": "In addition to the intrahemocoelic infection/therapy models described above, a recently described G. mellonella burn wound model was adopted ([37]). The burn was created using the flat head of a nail, which was heated in a blue Bunsen burner flame until red hot, cooled for 15 s, and superficially applied for 2 s to generate a 2-mm^2 burn. Larvae were then infected with a single colony of A. baumannii ATCC 17978 applied directly to the burn site, or sterile phosphate-buffered saline was applied as a control. Treatment was applied topically 1 h after infection in a volume of 5 μL. Survival was monitored over 96 h."}, "[3]": {"system": "Acinetobacter baumannii ATCC 17978", "test": "Broth microdilution MIC", "type": "cell-based"}, "[4]": {"system": "VR Enterococcus faecium NCTC 12204", "test": "Broth microdilution MIC", "type": "cell-based", "settings": "VR Enterococcus faecium NCTC 12204"}, "[5]": {"system": "Pseudomonas aeruginosa NCTC 13437", "test": "Broth microdilution MIC", "type": "cell-based"}, "[6]": {"system": "EMR Staphylococcus aureus 15 NCTC 13616", "test": "Broth microdilution MIC", "type": "cell-based", "settings": "EMR Staphylococcus aureus 15 NCTC 13616"}, "G. vaginalis KC2": {"system": "G. vaginalis KC2", "test": "Anaerobic broth microdilution MIC (BHI, 5% horse serum)", "type": "cell-based, Gardnerella vaginalis"}, "C. albicans 3281": {"system": "C. albicans 3281", "test": "Broth microdilution MIC", "type": "cell-based, Candida albicans", "settings": "C. albicans 3281"}, "C. parapsilosis": {"system": "C. parapsilosis", "test": "Broth microdilution MIC", "type": "cell-based"}, "P. aeruginosa NCTC 13437": {"system": "P. aeruginosa NCTC 13437", "test": "Checkerboard synergy assay", "type": "cell-based, Pseudomonas aeruginosa"}, "G. vaginalis NCTC 10287": {"system": "G. vaginalis NCTC 10287", "test": "Anaerobic broth microdilution MIC (BHI, 5% horse serum)", "type": "cell-based, Gardnerella vaginalis"}, "[7]": {"system": "VS Enterococcus faecalis NCTC 775", "test": "Broth microdilution MIC", "type": "cell-based"}, "C. auris temp probe": {"system": "C. auris temp probe", "test": "Broth microdilution MIC", "type": "cell-based, Candida auris", "settings": "C. auris temp probe"}, "[8]": {"system": "Pseudomonas aeruginosa PAO1", "test": "Broth microdilution MIC", "type": "cell-based"}, "C. krusei 3876": {"system": "C. krusei 3876", "test": "Broth microdilution MIC", "type": "cell-based"}, "[9]": {"system": "VR Enterococcus faecalis NCTC 12201", "test": "Broth microdilution MIC", "type": "cell-based", "settings": "VR Enterococcus faecalis NCTC 12201"}, "[10]": {"system": "Ac. pleuropneumoniae Shope", "test": "Checkerboard synergy assay (BHI, 5% FBS, 0.01% NAD)", "type": "cell-based, Actinobacillus pleuropneumoniae"}, "[11]": {"system": "Ac. pleuropneumoniae 2331", "test": "Checkerboard synergy assay (BHI, 5% FBS, 0.01% NAD)", "type": "cell-based, Actinobacillus pleuropneumoniae"}, "G. vaginalis KC1": {"system": "G. vaginalis KC1", "test": "Anaerobic broth microdilution MIC (BHI, 5% horse serum)", "type": "cell-based, Gardnerella vaginalis"}, "P. aeruginosa PAO1": {"system": "P. aeruginosa PAO1", "test": "Checkerboard synergy assay", "type": "cell-based, Pseudomonas aeruginosa"}, "[12]": {"system": "EMR Staphylococcus aureus 16 NCTC 13277", "test": "Broth microdilution MIC", "type": "cell-based", "settings": "EMR Staphylococcus aureus 16 NCTC 13277"}, "[13]": {"system": "Ac. pleuropneumoniae 2356", "test": "Checkerboard synergy assay (BHI, 5% FBS, 0.01% NAD)", "type": "cell-based, Actinobacillus pleuropneumoniae"}, "C. albicans 3179": {"system": "C. albicans 3179", "test": "Broth microdilution MIC", "type": "cell-based, Candida albicans", "settings": "C. albicans 3179"}, "C. glabrata 8018": {"system": "C. glabrata 8018", "test": "Broth microdilution MIC", "type": "cell-based", "settings": "C. glabrata 8018"}, "[14]": {"system": "Klebsiella pneumoniae NCTC 13368", "test": "Broth microdilution MIC", "type": "cell-based"}, "G. vaginalis KC3": {"system": "G. vaginalis KC3", "test": "Anaerobic broth microdilution MIC (BHI, 5% horse serum)", "type": "cell-based, Gardnerella vaginalis"}, "HeLa": {"system": "HeLa", "test": "In vitro toxicity for cell line", "type": "cell-based, human", "settings": "average ± standard error from 3 independent repeats", "excerpt": "(§1) TABLE 2 Toxicity of bolaamphiphiles for two cell lines^a | column: Toxicity (EC50 [μg/ml]) of: / 12-bis-THA Cl2; Toxicity (EC50 [μg/ml]) of: / Dequalinium; Toxicity (EC50 [μg/ml]) of: / Quino-bola; Toxicity (EC50 [μg/ml]) of: / Penta-bola; Toxicity (EC50 [μg/ml]) of: / Hepta-bola; Toxicity (EC50 [μg/ml]) of: / Octa-bola; Toxicity (EC50 [μg/ml]) of: / Octa-C10; Toxicity (EC50 [μg/ml]) of: / Octa-C8; Toxicity (EC50 [μg/ml]) of: / Octa-C6"}, "HEK293": {"system": "HEK293", "test": "In vitro toxicity for cell line", "type": "cell-based, human", "settings": "HEK293; average ± standard error from 3 independent repeats", "excerpt": "as §1"}, "C. tropicalis 8760": {"system": "C. tropicalis 8760", "test": "Broth microdilution MIC", "type": "cell-based", "settings": "C. tropicalis 8760"}, "[15]": {"system": "Prevotella bivia NCTC 11156", "test": "Anaerobic broth microdilution MIC (BHI, 5% horse serum)", "type": "cell-based"}, "[16]": {"system": "Ac. pleuropneumoniae 3370", "test": "Checkerboard synergy assay (BHI, 5% FBS, 0.01% NAD)", "type": "cell-based, Actinobacillus pleuropneumoniae"}, "EMRSA-15": {"system": "EMRSA-15", "type": "in vivo, Galleria mellonella"}, "C. parapsilosis 3209": {"system": "C. parapsilosis 3209", "test": "Broth microdilution MIC", "type": "cell-based"}, "Klebsiella pneumoniae M6": {"system": "Klebsiella pneumoniae M6", "test": "Broth microdilution MIC", "type": "cell-based"}}, "data": [{"smiles": "Nc1c2c([n+](CCCCCCCCCC[n+]3c4c(c(N)c5ccccc53)CCCCCC4)c3ccccc13)CCCCCC2", "note": "[Octa-C10]", "values": [{"measurement": "MIC", "setting": "[1]", "result": 16, "unit": "µg/mL"}, {"measurement": "MIC", "setting": "[2]", "result": 2, "unit": "µg/mL"}, {"measurement": "MIC alone Bolalipid", "setting": "P. aeruginosa RP73", "result": 8, "unit": "µg/mL"}, {"measurement": "larvae rescued", "setting": "A. baumannii ATCC 17978; 5 mg/kg topical", "result": 48, "unit": "%"}, {"measurement": "larvae rescued", "setting": "A. baumannii ATCC 17978; 10 mg/kg topical", "result": 60, "unit": "%"}, {"measurement": "protection", "setting": "A. baumannii ATCC 17978; lower doses (2.5 and 1.25 mg/kg)", "result": "ineffective"}, {"measurement": "MIC", "setting": "[3]", "result": 8, "unit": "µg/mL"}, {"measurement": "MIC", "setting": "[4]", "result": 0.25, "unit": "µg/mL"}, {"measurement": "MIC", "setting": "[5]", "result": ">32", "unit": "µg/mL"}, {"measurement": "MIC", "setting": "[6]", "result": 0.25, "unit": "µg/mL"}, {"measurement": "MIC", "setting": "G. vaginalis KC2", "result": 2, "unit": "µg/mL"}, {"measurement": "MIC", "setting": "C. albicans 3281", "result": 1, "unit": "µg/mL"}, {"measurement": "MIC", "setting": "C. parapsilosis", "result": 4, "unit": "µg/mL"}, {"measurement": "MIC alone Bolalipid", "setting": "P. aeruginosa NCTC 13437", "result": 32, "unit": "µg/mL"}, {"measurement": "MIC", "setting": "G. vaginalis NCTC 10287", "result": "0.5 to 1", "unit": "µg/mL"}, {"measurement": "MIC", "setting": "[7]", "result": 2, "unit": "µg/mL"}, {"measurement": "MIC", "setting": "C. auris temp probe", "result": 4, "unit": "µg/mL"}, {"measurement": "MIC", "setting": "[8]", "result": ">32", "unit": "µg/mL"}, {"measurement": "MIC", "setting": "C. krusei 3876", "result": 2, "unit": "µg/mL"}, {"measurement": "MIC", "setting": "[9]", "result": 1, "unit": "µg/mL"}, {"measurement": "MIC alone Bolalipid", "setting": "[10]; Octa-C10/enrofloxacin", "result": 1, "unit": "µg/mL"}, {"measurement": "MIC alone Bolalipid", "setting": "[10]; Octa-C10/streptomycin", "result": 1, "unit": "µg/mL"}, {"measurement": "MIC alone Bolalipid", "setting": "[11]; Octa-C10/enrofloxacin", "result": "4 to 8", "unit": "µg/mL"}, {"measurement": "MIC alone Bolalipid", "setting": "[11]; Octa-C10/streptomycin", "result": "4 to 8", "unit": "µg/mL"}, {"measurement": "MIC", "setting": "G. vaginalis KC1", "result": "0.5 to 1", "unit": "µg/mL"}, {"measurement": "MIC alone Bolalipid", "setting": "P. aeruginosa PAO1", "result": 64, "unit": "µg/mL"}, {"measurement": "MIC", "setting": "[12]", "result": 0.25, "unit": "µg/mL"}, {"measurement": "MIC alone Bolalipid", "setting": "[13]; Octa-C10/enrofloxacin", "result": "4 to 8", "unit": "µg/mL"}, {"measurement": "MIC alone Bolalipid", "setting": "[13]; Octa-C10/streptomycin", "result": "4 to 8", "unit": "µg/mL"}, {"measurement": "MIC", "setting": "C. albicans 3179", "result": 0.5, "unit": "µg/mL"}, {"measurement": "MIC", "setting": "C. glabrata 8018", "result": 0.5, "unit": "µg/mL"}, {"measurement": "MIC", "setting": "[14]", "result": 32, "unit": "µg/mL"}, {"measurement": "MIC", "setting": "G. vaginalis KC3", "result": 0.5, "unit": "µg/mL"}, {"measurement": "Toxicity (EC50)", "setting": "HeLa", "result": "10.7 ± 0.3", "unit": "µg/mL"}, {"measurement": "Toxicity (EC50)", "setting": "HEK293", "result": "7.0 ± 0.5", "unit": "µg/mL"}, {"measurement": "MIC", "setting": "C. tropicalis 8760", "result": 0.25, "unit": "µg/mL"}, {"measurement": "MIC", "setting": "[15]", "result": 0.125, "unit": "µg/mL"}, {"measurement": "MIC alone Bolalipid", "setting": "[16]; Octa-C10/enrofloxacin", "result": "4 to 8", "unit": "µg/mL"}, {"measurement": "MIC alone Bolalipid", "setting": "[16]; Octa-C10/streptomycin", "result": "4 to 8", "unit": "µg/mL"}, {"measurement": "protection", "setting": "EMRSA-15; in vivo", "result": "none of them providing significant protection"}, {"measurement": "infected larvae rescued", "setting": "EMRSA-15; lowest dose, 0.1 mg/kg", "result": "approximately a third"}, {"measurement": "MIC", "setting": "C. parapsilosis 3209", "result": 2, "unit": "µg/mL"}, {"measurement": "MIC", "setting": "Klebsiella pneumoniae M6", "result": 16, "unit": "µg/mL"}]}]}
